From US20240207427A1, “SELECTIVE DRUG RELEASE FROM INTERNALIZED CONJUGATES OF BIOLOGICALLY ACTIVE COMPOUNDS” (priority 2021, published 2024) come the findings set out here.

Each structure is given as a SMILES string. Like-named read-outs stand apart in the source and are kept apart here.

Assay type in all cases: cell-based
Assay [1] deals with renal carcinoma cells (786-O). Nature of the assay: In vitro potency (CellTiter-Glo, 96 h), 786-O. The following applies: Homo sapiens, 786-0, 96 h, CPT free drugs. Put shortly: (§1)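 IC50 (ng/mL or nmol/L) derived from CellTiter-Glo luminescence after 96 h exposure at 37 °C to serial dilutions of ADC or CPT free drug. Log-phase cells had been plated 24 h beforehand in RPMI 1640 containing 20% FBS.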
On the technique in general: Cellular ATP, detected with luciferase, serves as a proxy for viable cell number.

Assay [2] deals with non-small-cell lung cancer cells (Calu1). Description: In vitro potency (CellTiter-Glo, 96 h), Calu1. To be noted: Homo sapiens, Calu-1, 96 h. In short, it runs like this:
(§2)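 IC50 (ng/mL) was derived from growth inhibition of STR-authenticated lines held in culture under 2 months after thawing. Cells were grown in RPMI 1640 plus 20% FBS and treated with ADC dilution series for 96 h at 37 °C.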

The test system of assay [3] is anaplastic large cell lymphoma cells (DELBVR). Description: In vitro potency (CellTiter-Glo, 96 h), DELBVR. Put shortly:
as §1

The test system of assay [4] is pancreatic cancer cells (BxPC3). Nature of the assay: In vitro potency (CellTiter-Glo, 96 h), BxPC3. The following applies: Homo sapiens, BXPC-3, 96 h, CPT free drugs. Put shortly:
(§3)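 Seed log-phase cells 24 h (RPMI 1640, 20% FBS); add ADC serial dilutions; incubate 96 h, 37 °C; read luminescence; IC50 in ng/mL.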

Assay [5] concerns breast cancer cells (MDA-MB-231). Nature of the assay: In vitro potency (CellTiter-Glo, 96 h), MDA-MB-231. To be noted: Homo sapiens, MDA-MB-231, 96 h, CPT free drugs. Put shortly: as §1
In assay [6] the test system is acute myeloid leukemia cells (MOLM-13). Description: In vitro potency (CellTiter-Glo, 96 h), MOLM-13. To be noted: Homo sapiens, MOLM-13, 96 h, CPT free drugs. In short, it runs like this:
as §3

In assay [7] the test system is anaplastic large cell lymphoma cells (DEL). Nature of the assay: In vitro potency (CellTiter-Glo, 96 h), DEL. Put shortly:
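Log-phase cells were seeded for 24 h in RPMI 1640 with 20% FBS, then exposed to serially diluted antibody-drug conjugates or free camptothecin drug for 4 days at 37 °C. Growth inhibition was read by luminescence, and IC50 values were reported in ng/mL and nmol/L.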

The subject of assay [8] is anaplastic large cell lymphoma cells (Karpas299). Nature of the assay: In vitro potency (CellTiter-Glo, 96 h), Karpas299. The following applies: Homo sapiens, KARPAS-299, 96 h, CPT free drugs. Put shortly: as §1
The subject of assay [9] is B-lymphocyte cancer cells (SU-DHL4). Nature of the assay: In vitro potency (CellTiter-Glo, 96 h), SU-DHL-4. To be noted: Homo sapiens, SU-DHL-4, 96 h, CPT free drugs. Put shortly:
as §1

The next assay has as its system Ls174T cells. Description: In vitro potency (CellTiter-Glo, 96 h), Ls174T. To be noted: Homo sapiens, CPT free drugs. In short, it runs like this:
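Four-day continuous exposure at 37 °C to serially diluted ADC or free camptothecin payload, in RPMI 1640 with 20% FBS after 24 h pre-plating. Luminescent signal gave IC50 (ng/mL; nmol/L).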

A further assay deals with melanoma cells (A2058). Description: In vitro potency (CellTiter-Glo, 96 h), A2058. To be noted: Homo sapiens, A2058, 96 h. In short, it runs like this: as §2
Assay [10] has as its system Hodgkin's lymphoma cells (L540cy). Nature of the assay: In vitro potency (CellTiter-Glo, 96 h), L540cy. In short, it runs like this:
as §1

The mark [11] stands for this setting: Table 24, CellTiter-Glo after 96 h exposure, read-out: IC50 (nmol/L) 786-O.
[12] abbreviates: CPT free drugs, Table 24, CellTiter-Glo after 96 h exposure, read-out: IC50 (nmol/L) Calu1.
[13] abbreviates: CPT free drugs, Table 24, CellTiter-Glo after 96 h exposure, read-out: IC50 (nmol/L) DELBVR.
Where [14] appears, read: Table 24, CellTiter-Glo after 96 h exposure, read-out: IC50 (nmol/L) BxPC3.
The mark [15] stands for this setting: Table 24, CellTiter-Glo after 96 h exposure, read-out: IC50 (nmol/L) MDAMB231.
Setting [16] is: Table 24, CellTiter-Glo after 96 h exposure, read-out: IC50 (nmol/L) MOLM-13.
The mark [17] stands for this setting: CPT free drugs, Table 24, CellTiter-Glo after 96 h exposure, read-out: IC50 (nmol/L) DEL.
Setting [18] is: Table 24, CellTiter-Glo after 96 h exposure, read-out: IC50 (nmol/L) Karpas299.
Setting [19] is: Table 24, CellTiter-Glo after 96 h exposure, read-out: IC50 (nmol/L) SU-DHL-4.
Where [20] appears, read: LS174T, Table 24, CellTiter-Glo after 96 h exposure, read-out: IC50 (nmol/L) Ls174T.
Setting [21] is: CPT free drugs, Table 24, CellTiter-Glo after 96 h exposure, read-out: IC50 (nmol/L) A2058.
[22] abbreviates: CPT free drugs, Table 24, CellTiter-Glo after 96 h exposure, read-out: IC50 (nmol/L) L540cy.

On to `CC[C@@]1(O)C(=O)OCc2c1cc1n(c2=O)Cc2c-1nc1ccc(O)cc1c2CN` [Compound 3a], for which the IC50 in assay [1] (setting [11]) is 52.3 nmol/L; in assay [2] (setting [12]), 388 nmol/L; in assay [3] (setting [13]), 14 nmol/L; in assay [4] (setting [14]), 135 nmol/L; in assay [5] (setting [15]), 38.5 nmol/L; in assay [6] (setting [16]) it was 58 nmol/L. Also, the IC50 in assay [7] (setting [17]) was 10 nmol/L; in assay [8] (setting [18]), 59.4 nmol/L; in assay [9] (setting [19]) it was 16.4 nmol/L; with Ls174T cells (setting [20]), 37.1 nmol/L; with melanoma cells (A2058) (setting [21]) it was 16 nmol/L; in [10] (setting [22]) it was 18.2 nmol/L.

With `CC[C@@]1(O)C(=O)OCc2c1cc1n(c2=O)Cc2c-1nc1cc(F)c(OC)cc1c2CN` [Compound 2i], the IC50 in assay [1] (setting [11]) is 5 nmol/L; in [2] (setting [12]), 31 nmol/L; in [3] (setting [13]) it was 1 nmol/L; in assay [4] (setting [14]), 10 nmol/L; in assay [5] (setting [15]), 4 nmol/L; in [6] (setting [16]) it was 13 nmol/L. Besides, the IC50 in assay [7] (setting [17]) is 1 nmol/L; in assay [8] (setting [18]), 5 nmol/L; in [9] (setting [19]) it was 4 nmol/L; in the assay with Ls174T cells (setting [20]), 3.4 nmol/L; with melanoma cells (A2058) (setting [21]), 2 nmol/L; in assay [10] (setting [22]), 2 nmol/L.

Regarding `CCc1c(C)c(F)cc2nc3c(c(CN)c12)Cn1c-3cc2c(c1=O)COC(=O)[C@]2(O)CC` [Compound 10, (S)-11-(aminomethyl)-4,10-diethyl-8-fluoro-4-hydroxy-9-methyl-1,12-dihydro-14H-pyrano[3′,4′:6,7]indolizino[1,2-b]quinoline-3,14(4H)-dione], the IC50 in assay [1] (read-out: 786-O IC50, Table 28, renal carcinoma cells 786-O, 96 h, CellTiter-Glo) amounted to 54 nmol/L; in assay [2] (read-out: Calu1 IC50) it was 95 nmol/L; in [3] (read-out: DELBVR IC50, Table 28, CPT free drugs, anaplastic large cell lymphoma cells DELBVR, CellTiter-Glo) it was 15 nmol/L; in assay [4] (read-out: BxPC3 IC50, Table 28, pancreatic cancer cells BxPC3, 96 h, CellTiter-Glo), 64 nmol/L; in [5] (read-out: MDAMB231 IC50, Table 28, breast cancer cells MDA-MB-231, 96 h, CellTiter-Glo) it was 59 nmol/L; in [6] (read-out: MOLM-13 IC50, Table 28, acute myeloid leukemia cells MOLM-13, 96 h, CellTiter-Glo), 149 nmol/L. The IC50 in assay [7] (read-out: DEL IC50, Table 28, CPT free drugs, anaplastic large cell lymphoma cells DEL, CellTiter-Glo) was found to be 7 nmol/L; in [8] (read-out: Karpas299 IC50, Table 28, anaplastic large cell lymphoma cells Karpas299, 96 h, CellTiter-Glo), 57 nmol/L; in [9] (read-out: SU-DHL-4 IC50, Table 28, B-lymphocyte cancer cells SU-DHL4, 96 h, CellTiter-Glo), 15 nmol/L; in the assay on Ls174T cells (LS174T, 96 h, read-out: Ls174T IC50, Table 28, Ls174T cells, 96 h, CellTiter-Glo), 33 nmol/L; with melanoma cells (A2058) (read-out: A2058 IC50) it was 33 nmol/L; in [10] (read-out: L540cy IC50, Table 28, CPT free drugs, Hodgkin's lymphoma cells L540cy, CellTiter-Glo), 51 nmol/L.

Regarding `CC[C@@]1(O)C(=O)OCc2c1cc1n(c2=O)Cc2c-1nc1cc(Cl)c(C)c(F)c1c2CN` [Compound 2ab], the IC50 in assay [1] (setting [11]) is 6 nmol/L; in assay [2] (setting [12]) it was 22 nmol/L; in assay [3] (setting [13]), 3 nmol/L; in [4] (setting [14]), 12 nmol/L; in [5] (setting [15]) it was 30 nmol/L; in assay [6] (setting [16]), 53 nmol/L. Also, the IC50 turned out to be 2 nmol/L in assay [7] (setting [17]); 7 nmol/L in assay [8] (setting [18]); 4 nmol/L in assay [9] (setting [19]); 6 nmol/L in the assay with Ls174T cells (setting [20]); 3 nmol/L with melanoma cells (A2058) (setting [21]); 4 nmol/L in [10] (setting [22]).

As for `CC[C@@]1(O)C(=O)OCc2c1cc1n(c2=O)Cc2c-1nc1cc(F)c(O)cc1c2CN` [Compound 3b], the IC50 in assay [1] (setting [11]), in assay [2] (setting [12]), in assay [3] (setting [13]), in [4] (setting [14]), in assay [5] (setting [15]) and in [6] (setting [16]) was above 1000 nmol/L in each case. In addition, the IC50 (in assay [7] (setting [17]); in [8] (setting [18]); in assay [9] (setting [19]); in the assay on Ls174T cells (setting [20]); with melanoma cells (A2058) (setting [21]); in assay [10] (setting [22])) was above 1000 nmol/L each time.

As for `CC[C@@]1(O)C(=O)OCc2c1cc1n(c2=O)Cc2c-1nc1cc(F)c(C)c(C3=CCOC3)c1c2CN` [Compound 6d], the IC50 worked out at 23 nmol/L in [1] (Table 28, renal carcinoma cells 786-O, 96 h, CellTiter-Glo, read-out: 786-O IC50); 43 nmol/L in assay [2] (Table 28, CPT free drugs, non-small-cell lung cancer cells Calu1, 96 h, CellTiter-Glo, read-out: Calu1 IC50); 12 nmol/L in [3] (Table 28, CPT free drugs, anaplastic large cell lymphoma cells DELBVR, CellTiter-Glo, read-out: DELBVR IC50); 15 nmol/L in assay [4] (Table 28, pancreatic cancer cells BxPC3, 96 h, CellTiter-Glo, read-out: BxPC3 IC50); 21 nmol/L in assay [5] (Table 28, breast cancer cells MDA-MB-231, 96 h, CellTiter-Glo, read-out: MDAMB231 IC50); 6 nmol/L in [6] (Table 28, acute myeloid leukemia cells MOLM-13, 96 h, CellTiter-Glo, read-out: MOLM-13 IC50). The IC50 in assay [7] (Table 28, CPT free drugs, anaplastic large cell lymphoma cells DEL, CellTiter-Glo, read-out: DEL IC50) came to 3 nmol/L; in assay [8] (Table 28, anaplastic large cell lymphoma cells Karpas299, 96 h, CellTiter-Glo, read-out: Karpas299 IC50) it was 12 nmol/L; in assay [9] (Table 28, B-lymphocyte cancer cells SU-DHL4, 96 h, CellTiter-Glo, read-out: SU-DHL-4 IC50), 4 nmol/L; in the assay with Ls174T cells (Table 28, Ls174T cells, 96 h, CellTiter-Glo, read-out: Ls174T IC50), 31 nmol/L; in the assay with melanoma cells (A2058) (Table 28, CPT free drugs, melanoma cells A2058, 96 h, CellTiter-Glo, read-out: A2058 IC50) it was 13 nmol/L; in assay [10] (Table 28, CPT free drugs, Hodgkin's lymphoma cells L540cy, CellTiter-Glo, read-out: L540cy IC50), 11 nmol/L.

Turning to `CC[C@@]1(O)C(=O)OCc2c1cc1n(c2=O)Cc2c-1nc1cc(Br)c(C)c(F)c1c2CN` [Compound 2k], the IC50 in [1] (setting [11]) came out at 5 nmol/L; in [2] (setting [12]) it was 81 nmol/L; in assay [3] (setting [13]) it was 3.3 nmol/L; in assay [4] (setting [14]), 42 nmol/L; in [5] (setting [15]), 8 nmol/L; in assay [6] (setting [16]), 58 nmol/L. The IC50 was found to be 3.5 nmol/L in assay [7] (setting [17]); 14 nmol/L in [8] (setting [18]); 4 nmol/L in [9] (setting [19]); 11.9 nmol/L with Ls174T cells (setting [20]); 4 nmol/L with melanoma cells (A2058) (setting [21]); 4 nmol/L in [10] (setting [22]).
